# Assay results taken from patent EP1501797B1, “3-(SUBSTITUTED AMINO)-1H-INDOLE-2-CARBOXYLIC ACID ESTER AND 3-(SUBSTITUTED AMINO)-BENZO[B]THIOPHENE-2-CARBOXYLIC ACID ESTER DERIVATIVES AS INTERLEUKIN-4 GENE EXPRESSION INHIBITORS” (Aventis Pharmaceuticals Inc., priority 2002, dated 2003).
# Columns and labels:
# [1] = tested on: IFN-γ; assay: Human primary Th2 cells, anti-CD3/anti-CD28 activated, IFN-γ ELISA; assay type: cell-based
# Procedure: (§1) Briefly, CD4^+CD45RA^+ T cells, isolated from donor peripheral blood mononuclear cells of healthy donors, are educated in the presence of anti-CD3/CD28 antibodies and various growth factors to obtain either a Thl-like or Th2-like phenotypes as determined by the known cytokine profiles of these two cell types.
# (§2) Peripheral blood mononuclear cells (PBMC) are prepared from human blood by Ficoll-Hypacque (Pharmacia). The cells are washed two times in Hanks balanced salt solution (HBSS) and counted.
# (§3) Naive T cells (CD4^+/CD45RA ) are prepared by negative selection method using following antibodies and Dynabeads: anti-CD8, anti-HLA-DR, (where HLA means human leucocyte antigen) anti-CD14, anti-CD16, anti-CD19, anti-CD45RO antibodies (all from R&D Systems, 1-2 µg/ml) are added to the cells, and the cells are kept on ice for 30 min. The cells are washed two times in HBSS, and goat anti- mouse Ig-beads, (bead:target ratio, 5:1) are added. The cells and beads are slowly rotated at 4°C for 20 min. (following the protocol supplied from Dynal). The supernatant is removed and fresh goat anti-mouse Ig-beads are added to the supernatant, which is slowly rotated at 4°C for 20 min. The cells are counted and phenotypically characterized by flow cytometric analysis.
# (§4) CD4^+/CD45RA^+ cells at a density of 10^6/ml in RPMI, is prepared and added to RPMI medium containing 10% Hyclone serum/ glutamine and 1-2 µg/ml anti-CD28 Ab. The cells are split in two aliquots. For Th1 cells: anti-IL-4 Ab (1-2 µg/ml), IFN-γ (1 µg/ml, or 5000 units/ml) are added to the wells. For Th2 cells: IL-4 (100-200 ng/ml), anti-IFN-γ neutralizing Ab (1-2 µg/ml), anti-IL-12 neutralizing Ab (1-2 µg/ml) are added into the wells. […] The cells are transferred to fresh wells and grown in 200 units/ml IL-2 for 2 weeks by feeding them every other day with IL-2 containing medium and splitting the cultures 1:2 or 1:3 as needed. The degree of polarization is determined by intracellular staining of cells with anti-IFN-γ and anti-IL-4 antibodies from Pharmingen, and using flow cytometry from Becton Dickinson (BD), according to manufacturers description. The cells are stimulated with PHA and alloantigens at day 14 and 28 as described below. Eight days after the second allostimulation the cells can be used for compound screening or frozen for future use. For compound testing, large quantities of Th1 and Th2 cells derived from a given donor (NYTh1 and NYTh2) were expanded and frozen as aliquots in liquid nitrogen. The cells are thawed and cultured as and when needed. The thawed cells are stimulated with alloantigen/PHA combination. The cells are used for compound screening after 8-10 days in culture.
# (§5) Re-stimulation by allogeneic cells: Human PBMCs, to be used as alloantigens, are isolated from freshly drawn blood by Ficoll separation. […] Cells are counted and diluted to a final concentration of 2 x 10^6/ml in medium containing 10 µg/ml PHA and 200 units/ml IL-2.
# (§6) Ninetysix well Falcon tissue culture plates (Fisher Scientific) are coated with 100 microliters per well of 10 µg/ml anti-CD3 (PharMingen) antibody in phosphate buffered saline (PBS) and stored at 4°C one day before the experiment.
# (§7) On the day of assay, anti-CD3 antibody coated plates are washed with PBS once to remove all soluble anti-CD3 antibody. […] All compounds and controls are assayed in triplicates.
# [2] = tested on: IL-5; assay: Human primary Th2 cells, anti-CD3/anti-CD28 activated, IL-5 ELISA; assay type: cell-based
# Procedure: as §1, §2, §3, §4, §5, §6, §7
# [3] = Human primary Th2 cells, combined data from 10 different experiments
compound,measurement,setting,value
"O=C(O)c1[nH]c2ccccc2c1Nc1ccncc1 [Example 28, 3-(4-Pyridinylamino)-1H-indole-2-carboxylic acid]",activity at 0.01 µM,"[1]; Homo sapiens, 0.01 µM, 48 hr, read-out: IFN-γ (% control) mean",96.9%
same,activity at 0.03 µM,"[1]; Homo sapiens, 0.03 µM, 48 hr, read-out: IFN-γ (% control) mean",91.6%
same,activity at 0.1 µM,"[1]; Homo sapiens, 0.1 µM, 48 hr, read-out: IFN-γ (% control) mean",91.8%
same,activity at 0.3 µM,"[1]; Homo sapiens, 0.3 µM, 48 hr, read-out: IFN-γ (% control) mean",92.1%
same,activity at 1 µM,"[1]; Homo sapiens, 1 µM, 48 hr, read-out: IFN-γ (% control) mean",89.2%
same,activity at 3 µM,"[1]; Homo sapiens, 3 µM, 48 hr, read-out: IFN-γ (% control) mean",83.5%
same,activity at 10 µM,"[1]; Homo sapiens, 10 µM, 48 hr, read-out: IFN-γ (% control) mean",75%
same,IC50,[1]; [3],> 10 µM
same,activity at 0.01 µM,"[2]; Homo sapiens, 0.01 µM, 48 hr, read-out: IL-5 (% control) mean",102%
same,activity at 0.03 µM,"[2]; Homo sapiens, 0.03 µM, 48 hr, read-out: IL-5 (% control) mean",85.2%
same,activity at 0.1 µM,"[2]; Homo sapiens, 0.1 µM, 48 hr, read-out: IL-5 (% control) mean",78.6%
same,activity at 0.3 µM,"[2]; Homo sapiens, 0.3 µM, 48 hr, read-out: IL-5 (% control) mean",70.8%
same,activity at 1 µM,"[2]; Homo sapiens, 1 µM, 48 hr, read-out: IL-5 (% control) mean",70.7%
same,activity at 3 µM,"[2]; Homo sapiens, 3 µM, 48 hr, read-out: IL-5 (% control) mean",70.4%
same,activity at 10 µM,"[2]; Homo sapiens, 10 µM, 48 hr, read-out: IL-5 (% control) mean",53.9%
same,IC50,[2]; [3],~10 µM
